According to patent EP0034471A1, “Piperidinoquinazolines and a process for the preparation thereof” (ORION-YHTYMÄ OY, priority 1980, dated 1981):
Structures can show the parent of a compound that is named as a salt.

Tests used:
male Wistar rats = experiment: Blood pressure lowering after intravenous administration in urethane-anaesthetised rats (mean arterial pressure, femoral artery); format: in vivo; conditions: maximal decrease of the blood pressure
Method: The effect of the compounds when administered intravenously was studied with male Wistar rats, 240-290 g,which were anaesthetised with urethane (1.5 g/kg intraperitoneally). A heating pad which is controlled by a thermostate connected to the colonic thermistor probe was placed underneath the rats to keep the body temperature at' 38°C. The trachea was cannulated with a polyethylene tube and the rats were allowed to breathe spontaneously. A femoral vein was cannulated for intravenous injections of drugs. […] The pressure . signals were amplified with a pressure conditioner (HP […]). The mean arterial pressure was recorded on paper with a . chart recorder. […] A dose of 0.1 μmol/kg was injected intravenously and the maximal decrease of the blood pressure (mmHg) was measured.

[1] = test system: Spontaneously hypertensive rats of the Okamoto-Aoki strain; experiment: Blood pressure lowering after oral administration in conscious spontaneously hypertensive rats (tail cuff, systolic pressure); format: in vivo; conditions: for The decrease of the blood pressure (mmHg) induced by the dose of 0.5 µmol/rat p.o. 1h: 1 hour after administration; for The decrease of the blood pressure (mmHg) induced by the dose of 0.5 µmol/rat p.o. 2h: 2 hours after administration; for The decrease of the blood pressure (mmHg) induced by the dose of 0.5 µmol/rat p.o. 5h: 5 hours after administration

| SMILES | The decrease of the blood pressure (mmHg) induced by the dose of 0.1 µmol/kg i.v. (male Wistar rats) [mmHg] | The decrease of the blood pressure (mmHg) induced by the dose of 0.5 µmol/rat p.o. 1h [1] [mmHg] | The decrease of the blood pressure (mmHg) induced by the dose of 0.5 µmol/rat p.o. 2h [1] [mmHg] | The decrease of the blood pressure (mmHg) induced by the dose of 0.5 µmol/rat p.o. 5h [1] [mmHg] |
| --- | --- | --- | --- | --- |
| COc1cc2nc(N3CCC(C(=O)N4CCCCCC4)CC3)nc(N)c2cc1OC [1-azacycloheptyl, 2-(4-(azacyclohept-1-yl-carbonyl)piperi-dino)-4-amino-6,7-dimethoxyquinazoline hydrochloride] | 47 | 23 | 27 | 25 |
| COc1cc2nc(N3CCC(C(=O)N4CCCCCCC4)CC3)nc(N)c2cc1OC [1-azacyclooctyl, 2-(4-(azacyclooct-1-yl-carbonyl)piperidino-4-amino-6,7-dimethoxyquinazoline hydrochloride] | 23 | 18 | 23 | 29 |
| COc1cc2nc(N3CCC(C(=O)N4CCCCC4C)CC3)nc(N)c2cc1OC.Cl (stereo not shown) [2-methylpiperidino, 2-(4-(2-methylpiperidino)carbonylpiperidino)-4-amino-6,7-dimethoxyquinazoline hydrochloride] | 31 | 15 | 25 | 28 |
| CCN(CC)C(=O)C1CCN(c2nc(N)c3cc(OC)c(OC)cc3n2)CC1 [A(R = diethylamino), 2-(4-diethylaminocarbonylpiperidino) 4- .amino-6,7-dimethoxyquinazoline, reference compound] | 37 | 24 | 16 | 10 |
| COc1cc2nc(N3CCC(C(=O)N4CCOCC4)CC3)nc(N)c2cc1OC [B(R = morpholino), 2-(4-morpholinocarbonylpiperidino)-4-amino-6,7-dimethoxyquinazoline, reference compound] | 30 | 7 | 5 | -2 |
| COc1cc2nc(N3CCC(C(N)=O)CC3)nc(N)c2cc1OC.Cl [amino, 2-(4-carbamoylpiperidino)-4-amino-6,7-dimethoxyquinazoline hydrochloride] | 27 | 20 | 22 | 20 |
| COc1cc2nc(N3CCC(C(=O)OCC(C)(C)C)CC3)nc(N)c2cc1OC.Cl [neopentyloxy, 2-(4-neopentyloxycarbonylpiperidino)-4-amino-6,7-dimethoxyquinazoline hydrochloride] | 44 | 22 | 21 | 21 |
| COc1cc2nc(N3CCC(C(=O)N4CCCCC4)CC3)nc(N)c2cc1OC [piperidino, 2-(4-piperidinocarbonylpiperidino)-4-amino-6,7-dimethoxyquinazoline] | 32 | 25 | 22 | 17 |
| COc1cc2nc(N3CCN(C(=O)c4ccco4)CC3)nc(N)c2cc1OC [prazosin, 2-(4-(2-furoyl)-piperazin-l-yl)-4-amino-6,7-dimethoxyquinazoline, reference compound] | 36 | 26 | 31 | 24 |
| COc1cc2nc(N3CCC(C(=O)NC(C)(C)C)CC3)nc(N)c2cc1OC.Cl [t-butylamino, 2-(4-tert-butylcarbamoylpiperidino)-4-amino-6,7-dimethoxyquinazoline hydrochloride] | 28 | 15 | 25 | 28 |
